Data taken from patent US8716242B2, “β-hairpin peptidomimetics” (priority 2009, dated 2014).
Numbered stars: 1 amine (or outer) side, 2 acyl side, 3 side chain; on linkers, the order of the positions; unused ones are H or OH. Bridge positions count the residues as written; N and C are the ends. Square brackets hold non-standard residues; d marks the D form. Side chains are listed from the residue outwards. Peptide text beside a SMILES is read from it. * marks the point of attachment. γGlu = O=C(O)[C@H](CCC(=O)[*:2])N[*:1]; Palmitoyl = CCCCCCCCCCCCCCCC(=O)*; Myristoyl = CCCCCCCCCCCCCC(=O)*; Lauroyl = CCCCCCCCCCCC(=O)*; Dab = NCC[C@H](N)C(=O)O

Key:
[1] = in vivo; set-up: species or system male CD-1 mice; settings: for AUC0-∞ dcor. / Cmax dcor.: mouse
Method: 2.7. Pharmacokinetic Study (PK)
Pharmacokinetic study after intravenous (i.v.) and subcutaneous (s.c.) administration was performed for the compounds of Ex. 17, Ex. 20, Ex. 25, Ex. 26, Ex. 28, and Ex. 29. […] The compounds of Ex. 17, Ex. 25, Ex. 26, Ex. 28, and Ex. 29 were administered i.v. and s.c. as a cassette whereas for the compound of Ex. 20a single i.v. and s.c. administration was accomplished.
30 grams (±20%) male CD-1 mice obtained from Janvier, France, were used in the study testing the cassette compounds. The vehicle, phosphate buffered saline containing 5% DMSO, was added to give a final concentration of 0.5 mg/mL of the compounds (i.v. route and s.c. route). The volume was 2 mL/kg i.v. and 10 mL/kg s.c. and the cassette compounds were injected to give a final intravenous dose of 1 mg/kg and an subcutaneous dose of 5 mg/kg. Approximately 500 μL of blood were removed from the opened heart at predetermined time intervals (5, 15, 30 min and 1, 2, 4, 8 and 12 hours for the i.v. study and 5, 15, 30 min and 1, 2, 4, 8, 12 and 24 hours for the s.c. study) and added to heparinized tubes. Plasma was removed from pelleted cells upon centrifugation and frozen at −80° C. prior to HPLC-MS analysis. For the compound of Ex. 20 30 grams (±20%) male CD-1 mice obtained from Charles River Laboratories Deutschland GmbH were used. The vehicle, phosphate buffered saline, was added to give a final concentration of 0.2 mg/mL of the compound (i.v. route) and 1 mg/mL (s.c. route). The volume was 5 mL/kg i.v. and s.c. and the compound was injected to give a final intravenous dose of 1 mg/kg and an subcutaneous dose of 5 mg/kg. Approximately 300-400 μL of blood was removed under light isoflurane anesthesia by cardiac puncture at predetermined time intervals (5, 15, 30 min and 1, 2, 3, 4, 6, 12 hours for the i.v. study and 15, min and 1, 2, 4, 6, 8, 12 and 24 hours for the s.c. study) and added to heparinized tubes. Plasma was removed from pelleted cells upon centrifugation and frozen at −80° C. prior to HPLC-MS analysis.
Preparation of the Plasma Calibration Samples
“Blank” mouse plasma from untreated animals was used. Aliquots of plasma of 0.2 mL each were spiked with 50 ng of propranolol (Internal Standard, IS), (sample preparation by solid phase extraction on OASIS® HLB cartridges [Waters]) and with known amounts of Ex. 20 in order to obtain 9 plasma calibration samples in the range 10-5000 nM. The OASIS® HLB cartridges were conditioned with 1 mL of methanol and then with 1 mL of 1% NH3 in water. Samples were then diluted with 700 μL of 1% NH3 in water and loaded. The plate was washed with 1 mL of methanol/1% NH3 in water 5/95 (v/v). Elution was performed using 1 mL of 0.1% TFA in methanol.
The plate containing eluates was introduced into the concentrator system and taken to dryness. The residues were dissolved in 100 μL of formic acid 0.1%/acetonitrile, 95/5 (v/v) and analysed in the HPLC/MS on a reverse phase analytical column (Jupiter C18, 50×2.0 mm, 5 μm, Phenomenex), using gradient elution (mobile phases A: 0.1% formic acid in water, B: acetonitrile; from 5% B to 100% B in 2 min.).
Preparation of Plasma Samples
Samples coming from animal treatments were pooled in order to obtain an appropriate volume for the extraction. If the total volume obtained was less than 0.2 mL the appropriate amount of “blank” mouse plasma was added in order to keep the matrix identical to the calibration curve. Samples were than spiked with IS and processed as described for the calibration curve.
Pharmacokinetic Evaluation
In order to perform PK analysis pooled plasma data (n=3 mice) was used. PK parameters were calculated by WinNonLin™ software version 5.2.1 (Pharsight—A Certara™ Company, Mountain View, Calif. 94041 USA) using non-compartmental analysis with a linear up/log down trapezoidal calculation method. For the terminal elimination phase at least 3 time points and a correlation coefficient greater than 0.85 was used. […]

[2] = Plasma stability in mouse plasma; type: in vitro ADME; settings: mouse plasma, 37° C.; for remaining at 24 h, 10 μM: 1440 min, read-out: mouse pl. cpd left at 1440 min
Summary of the method: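 Peptides (1 mM DMSO/H2O stock) were spiked into human or mouse plasma in triplicate and incubated at 37 °C, sampling from 0 to 1440 min. Samples were quenched in formic acid/acetonitrile and analysed by LC/MS MRM. Remaining percent of t=0 was calculated and T1/2 derived by trend fitting.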

Row | SMILES | bioavailability ([1]; male, CD-1, mouse) [%] | AUC(0-inf) ([1]; male, CD-1, mouse, iv, 1 mg/kg) [ng·h/mL] | Cmax ([1]; male, CD-1, mouse, iv, 1 mg/kg) [ng/mL] | Tmax ([1]; male, CD-1, mouse, iv, 1 mg/kg) [h] | half-life ([1]; male, CD-1, mouse, iv, 1 mg/kg) [h] | level at 0.083 h ([1]; male, CD-1, mouse, iv, 1 mg/kg) [ng/mL] | level at 0.25 h ([1]; male, CD-1, mouse, iv, 1 mg/kg) [ng/mL] | level at 0.5 h ([1]; male, CD-1, mouse, iv, 1 mg/kg) [ng/mL] | level at 1 h ([1]; male, CD-1, mouse, iv, 1 mg/kg) [ng/mL] | level at 2 h ([1]; male, CD-1, mouse, iv, 1 mg/kg) [ng/mL] | level at 4 h ([1]; male, CD-1, mouse, iv, 1 mg/kg) [ng/mL] | level at 12 h ([1]; male, CD-1, mouse, iv, 1 mg/kg) [ng/mL] | AUC(0-inf) ([1]; male, CD-1, mouse, sc, 5 mg/kg) [ng·h/mL] | Cmax ([1]; male, CD-1, mouse, sc, 5 mg/kg) [ng/mL] | Tmax ([1]; male, CD-1, mouse, sc, 5 mg/kg) [h] | half-life ([1]; male, CD-1, mouse, sc, 5 mg/kg) [h] | level at 0.5 h ([1]; male, CD-1, mouse, sc, 5 mg/kg) [ng/mL] | level at 1 h ([1]; male, CD-1, mouse, sc, 5 mg/kg) [ng/mL] | level at 2 h ([1]; male, CD-1, mouse, sc, 5 mg/kg) [ng/mL] | level at 4 h ([1]; male, CD-1, mouse, sc, 5 mg/kg) [ng/mL] | also measured
1 | CCCCCCCCCCCCCCCC(=O)NCCCC[C@@H]1NC(=O)[C@H](Cc2ccc(O)cc2)NC(=O)[C@@H]2CSSC[C@H](NC(=O)[C@H](Cc3ccc(O)cc3)NC(=O)[C@H](Cc3c[nH]cn3)NC(=O)[C@H](Cc3ccc(O)cc3)NC(=O)[C@@H]3CCCN3C(=O)[C@H]3CCCN3C(=O)[C@H](CCCCN)NC1=O)C(=O)N[C@@H](CO)C(=O)N[C@@H](C)C(=O)N1CCC[C@@H]1C(=O)N[C@@H](CCN)C(=O)N[C@@H](CCCNC(=N)N)C(=O)N[C@@H](Cc1ccc(O)cc1)C(=O)N2 [Ex. 20] (cyclo(YHYCSA[dP][Dab]RYCYK(Palmitoyl)K[dP]P); disulfide 4-11) | 139 | 5500 | 2210 | 0.5 | 2 | 777 | 1520 | 2210 | 1380 | 992 | 486 | 13 | 38200 | 3040 | 12 | 2.9 | 70 | 342 | 868 | 1700 | level at 3 h ([1]; male, CD-1, mouse, iv, 1 mg/kg): 638 ng/mL; level at 6 h ([1]; male, CD-1, mouse, iv, 1 mg/kg): 234 ng/mL; level at 6 h ([1]; male, CD-1, mouse, sc, 5 mg/kg): 2800 ng/mL; level at 8 h ([1]; male, CD-1, mouse, sc, 5 mg/kg): 2860 ng/mL; level at 12 h ([1]; male, CD-1, mouse, sc, 5 mg/kg): 3040 ng/mL; level at 24 h ([1]; male, CD-1, mouse, sc, 5 mg/kg): 179 ng/mL; AUC0-∞ dcor. ([1]; iv, 1 mg/kg): 5504.8 kg·ng·h/mg/mL; Cmax dcor. ([1]; iv, 1 mg/kg): 2210.0 kg·ng/mg/mL; AUC0-∞ dcor. ([1]; sc, 5 mg/kg): 7630.8 kg·ng·h/mg/mL; Cmax dcor. ([1]; sc, 5 mg/kg): 608.7 kg·ng/mg/mL; remaining at 24 h, 10 μM [2]: 83%; mouse pl. T1/2 ([2]; up to 1440 min): 24 h
2 | CCCCCCCCCCCCCC(=O)N[C@@H](CCC(=O)NCCCC[C@@H]1NC(=O)[C@H](Cc2ccc(O)cc2)NC(=O)[C@@H]2CSSC[C@H](NC(=O)[C@H](Cc3ccc(O)cc3)NC(=O)[C@H](Cc3c[nH]cn3)NC(=O)[C@H](Cc3ccc(O)cc3)NC(=O)[C@@H]3CCCN3C(=O)[C@H]3CCCN3C(=O)[C@H](CCCCN)NC1=O)C(=O)N[C@@H](CO)C(=O)N[C@@H](C)C(=O)N1CCC[C@@H]1C(=O)N[C@@H](CCN)C(=O)N[C@@H](CCCNC(=N)N)C(=O)N[C@@H](Cc1ccc(O)cc1)C(=O)N2)C(=O)O [Ex. 28] (cyclo(YHYCSA[dP][Dab]RYCYK([γGlu-Myristoyl])K[dP]P); disulfide 4-11) | 150 | 3430 | 2820 | 0.1 | 3.2 | 2820 | 2120 | 2030 | 1670 | 114 | 148 | 17 | 25700 | 1900 | 8 | 4.3 | 73 | 232 | 1520 | 1270 | level at 8 h ([1]; male, CD-1, mouse, iv, 1 mg/kg): 34 ng/mL; level at 0.25 h ([1]; male, CD-1, mouse, sc, 5 mg/kg): 16 ng/mL; level at 8 h ([1]; male, CD-1, mouse, sc, 5 mg/kg): 1900 ng/mL; level at 12 h ([1]; male, CD-1, mouse, sc, 5 mg/kg): 1610 ng/mL; level at 24 h ([1]; male, CD-1, mouse, sc, 5 mg/kg): 164 ng/mL; AUC0-∞ dcor. ([1]; iv, 1 mg/kg): 3430.8 kg·ng·h/mg/mL; Cmax dcor. ([1]; iv, 1 mg/kg): 2817.0 kg·ng/mg/mL; AUC0-∞ dcor. ([1]; sc, 5 mg/kg): 5137.4 kg·ng·h/mg/mL; Cmax dcor. ([1]; sc, 5 mg/kg): 380.0 kg·ng/mg/mL; remaining at 24 h, 10 μM [2]: 78%; mouse pl. T1/2 ([2]; up to 1440 min): 24 h
3 | CCCCCCCCCCCC(=O)NCCCC[C@@H]1NC(=O)[C@H](Cc2ccc(O)cc2)NC(=O)[C@@H]2CSSC[C@H](NC(=O)[C@H](C)NC(=O)[C@H](Cc3c[nH]cn3)NC(=O)[C@H](Cc3ccc(O)cc3)NC(=O)[C@@H]3CCCN3C(=O)[C@H]3CCCN3C(=O)[C@H](CCCCN)NC1=O)C(=O)N[C@@H](CCCNC(=N)N)C(=O)N[C@@H](C)C(=O)N1CCC[C@@H]1C(=O)N[C@@H](CCN)C(=O)N[C@@H](CCCNC(=N)N)C(=O)N[C@@H](Cc1ccc(O)cc1)C(=O)N2 [Ex. 17] (cyclo(YHACRA[dP][Dab]RYCYK(Lauroyl)K[dP]P); disulfide 4-11) | 114 | 2950 | 2640 | 0.1 | 2 | 2640 | 2030 | 1560 | 1290 | 178 | 141 | 8 | 16800 | 1750 | 2 | 4.3 | 450 | 874 | 1750 | 1410 | level at 8 h ([1]; male, CD-1, mouse, iv, 1 mg/kg): 15 ng/mL; level at 0.25 h ([1]; male, CD-1, mouse, sc, 5 mg/kg): 140 ng/mL; level at 8 h ([1]; male, CD-1, mouse, sc, 5 mg/kg): 1240 ng/mL; level at 12 h ([1]; male, CD-1, mouse, sc, 5 mg/kg): 567 ng/mL; level at 24 h ([1]; male, CD-1, mouse, sc, 5 mg/kg): 65 ng/mL; AUC0-∞ dcor. ([1]; iv, 1 mg/kg): 2950.8 kg·ng·h/mg/mL; Cmax dcor. ([1]; iv, 1 mg/kg): 2640.0 kg·ng/mg/mL; AUC0-∞ dcor. ([1]; sc, 5 mg/kg): 3357.9 kg·ng·h/mg/mL; Cmax dcor. ([1]; sc, 5 mg/kg): 350.6 kg·ng/mg/mL; remaining at 24 h, 10 μM [2]: 59%; half-life at 10 μM ([2]; up to 1440 min, read-out: mouse pl. T1/2): 19.5 h
